Assay results published in patent publication US6914045B2, “Glycopeptide antibiotics” (Wyeth Holdings Corporation, priority 2001, dated 2005).
In brackets after ≈: the same amount, converted by molar mass.

Assays:
Test in all cases: in vitro antibacterial evaluation, MIC by broth dilution
Type in all cases: cell-based
Enterococcus sp. = details: broth dilution, 18 hours at 35° C.
Outline: (§1)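 Broth dilution per NCCLS standard M7-A2 in Muller-Hinton II […], with an inoculum of 5×10^5 CFU/mL and antibiotic spanning 64-0.06 μg/mL. The MIC is the lowest concentration that inhibits growth of the organism.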

Streptococcus sp. = details: broth dilution, 18 hours at 35° C.
Outline: as §1

Staphylococcus sp. = details: broth dilution, 18 hours at 35° C.
Outline: as §1

Escherichia coli = details: 18 hours at 35° C.
Outline: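 Broth dilution in Muller-Hinton II medium per NCCLS standard M7-A2, with an inoculum of 5×10^5 CFU/mL and antibiotic tested over 64-0.06 μg/mL. MIC was taken as the lowest concentration inhibiting visible growth.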

- MIC Enterococcus avium (GC 4558) (Enterococcus sp.; Enterococcus avium (GC 4558)): 4 µg/mL (≈ 2.69 µM)
- MIC Enterococcus faecalis (ATCC 29212) (Enterococcus sp.; Enterococcus faecalis (ATCC 29212)): 8 µg/mL (≈ 5.37 µM)
- MIC Enterococcus faecalis (GC 2242) (Enterococcus sp.; Enterococcus faecalis (GC 2242)): 4 µg/mL (≈ 2.69 µM)
- MIC Enterococcus faecalis (GC 4552) (Enterococcus sp.; Enterococcus faecalis (GC 4552)): 8 µg/mL (≈ 5.37 µM)
- MIC Enterococcus faecalis (GC 4553) (Enterococcus sp.; Enterococcus faecalis (GC 4553)): 8 µg/mL (≈ 5.37 µM)
- MIC Enterococcus faecalis (GC 4554) (Enterococcus sp.; Enterococcus faecalis (GC 4554)): 8 µg/mL (≈ 5.37 µM)
- MIC Enterococcus faecium (GC 2243) (Enterococcus sp.; Enterococcus faecium (GC 2243)): 8 µg/mL (≈ 5.37 µM)
- MIC Enterococcus faecium (GC 4556) (Enterococcus sp.; Enterococcus faecium (GC 4556)): 8 µg/mL (≈ 5.37 µM)
- MIC Enterococcus faecium (GC 4557) (Enterococcus sp.; Enterococcus faecium (GC 4557)): 1 µg/mL (≈ 0.671 µM)
- MIC Enterococcus avium (GC 4558) (Enterococcus sp.): 4 µg/mL (≈ 2.69 µM)
- MIC Enterococcus faecalis (ATCC 29212) (Enterococcus sp.): 8 µg/mL (≈ 5.37 µM)
- MIC Enterococcus faecalis (GC 2242) (Enterococcus sp.): 4 µg/mL (≈ 2.69 µM)
- MIC Enterococcus faecalis (GC 4552) (Enterococcus sp.): 8 µg/mL (≈ 5.37 µM)
- MIC Enterococcus faecalis (GC 4553) (Enterococcus sp.): 8 µg/mL (≈ 5.37 µM)
- MIC Enterococcus faecalis (GC 4554) (Enterococcus sp.): 8 µg/mL (≈ 5.37 µM)
- MIC Enterococcus faecium (GC 2243) (Enterococcus sp.): 8 µg/mL (≈ 5.37 µM)
- MIC Enterococcus faecium (GC 4556) (Enterococcus sp.): 8 µg/mL (≈ 5.37 µM)
- MIC Enterococcus faecium (GC 4557) (Enterococcus sp.): 1 µg/mL (≈ 0.671 µM)
- MIC Streptococcus agalactiae (GC 4564) (Streptococcus sp.; Streptococcus agalactiae (GC 4564)): 0.25 µg/mL (≈ 0.168 µM)
- MIC Streptococcus pneumoniae (GC 4565) (Streptococcus sp.; Streptococcus pneumoniae (GC 4565)): <0.12 µg/mL
- MIC Streptococcus pyogenes (ID-3187) (Streptococcus sp.; Streptococcus pyogenes (ID-3187)): 0.25 µg/mL (≈ 0.168 µM)
- MIC Streptococcus agalactiae (GC 4564) (Streptococcus sp.): 0.25 µg/mL (≈ 0.168 µM)
- MIC Streptococcus pneumoniae (GC 4565) (Streptococcus sp.): <0.12 µg/mL
- MIC Streptococcus pyogenes (ID-3187) (Streptococcus sp.): 0.25 µg/mL (≈ 0.168 µM)
- MIC Coagulase Negative Staphylococcus (GC 4547) (Staphylococcus sp.): 1 µg/mL (≈ 0.671 µM)
- MIC Coagulase Negative Staphylococcus (GC 4548) (Staphylococcus sp.): 0.5 µg/mL (≈ 0.336 µM)
- MIC Coagulase Negative Staphylococcus (GC 4549) (Staphylococcus sp.): 0.5 µg/mL (≈ 0.336 µM)
- MIC Coagulase Negative Staphylococcus (GC 4551) (Staphylococcus sp.): 2 µg/mL (≈ 1.34 µM)
- MIC Coagulase Negative Staphylococcus (ID-3941) (Staphylococcus sp.): 0.5 µg/mL (≈ 0.336 µM)
- MIC Staphylococcus aureus-SMITH (GC 4543) (Staphylococcus sp.): 2 µg/mL (≈ 1.34 µM)
- MIC Coagulase Negative Staphylococcus (GC 4547) (Staphylococcus sp.; strain GC 4547): 1 µg/mL (≈ 0.671 µM)
- MIC Coagulase Negative Staphylococcus (GC 4548) (Staphylococcus sp.; strain GC 4548): 0.5 µg/mL (≈ 0.336 µM)
- MIC Coagulase Negative Staphylococcus (GC 4549) (Staphylococcus sp.; strain GC 4549): 0.5 µg/mL (≈ 0.336 µM)
- MIC Coagulase Negative Staphylococcus (GC 4551) (Staphylococcus sp.; strain GC 4551): 2 µg/mL (≈ 1.34 µM)
- MIC Coagulase Negative Staphylococcus (ID-3941) (Staphylococcus sp.; strain ID-3941): 0.5 µg/mL (≈ 0.336 µM)
- MIC Staphylococcus aureus-SMITH (GC 4543) (Staphylococcus sp.; strain SMITH GC 4543): 2 µg/mL (≈ 1.34 µM)
- MIC Staphylococcus aureus (ATCC 29213) (Staphylococcus sp.; strain ATCC 29213): 1 µg/mL (≈ 0.671 µM)
- MIC Staphylococcus aureus (GC 1131) (Staphylococcus sp.; strain GC 1131): 2 µg/mL (≈ 1.34 µM)
- MIC Staphylococcus aureus (GC 4541) (Staphylococcus sp.; strain GC 4541): 1 µg/mL (≈ 0.671 µM)
- MIC Staphylococcus aureus (GC 4542) (Staphylococcus sp.; strain GC 4542): 2 µg/mL (≈ 1.34 µM)
- MIC Staphylococcus aureus (GC 4544) (Staphylococcus sp.; strain GC 4544): 2 µg/mL (≈ 1.34 µM)
- MIC Staphylococcus aureus (GC 4545) (Staphylococcus sp.; strain GC 4545): 1 µg/mL (≈ 0.671 µM)
- MIC Escherichia coli (ATCC 25922) (Escherichia coli): >128 µg/mL
Structure (SMILES): CC(c1ccccc1)C1NC(=O)CNC(=O)C(CO)NC(=O)C(C(O)C2CNC(=N)N2C2OC(CO)C(O)C(O)C2O)NC(=O)C(C(O)C2CNC(=N)N2)NC(=O)C(Cc2ccc(OC3OC(COC(=O)C(c4ccccc4)c4ccccc4)C(OC4OC(CO)C(O)C(O)C4O)C(O)C3O)cc2)NC1=O (stereo not drawn) [Example 96b, Cyclo[glycyl-β-methylphenylalanyl-O-[6-O-(diphenylacetyl)-4-O-hexopyranosylhexopyranosyl]tyrosyl-3-(2-iminoimidazolidin-4-yl)seryl-3-(3-hexopyranosyl-2-iminoimidazolidin-4-yl)serylseryl]]
- MIC Staphylococcus haemolyticus (GC 4546) (Staphylococcus sp.): 1 µg/mL (≈ 0.671 µM)
- MIC Staphylococcus haemolyticus (GC 4546) (Staphylococcus sp.; strain GC 4546): 1 µg/mL (≈ 0.671 µM)
